Data as given in ChEMBL document CHEMBL1201862, “PubChem BioAssay data set” (2004).
Activity calls are given as the source filed them.

What was measured:
[1] = target: T1, RNA-binding protein pos-1 (Caenorhabditis elegans, UniProt G5EF15); test: disruptors of C. elegans POS-1 RNA interaction – biochemical, fluorescence polarization, dose response (AID 1964);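 note: purified POS-1 fused to maltose binding protein made in E. coli; potency of compounds blocking POS-1 binding to fluorescent RNA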
T1 sequence (G5EF15 whole entry): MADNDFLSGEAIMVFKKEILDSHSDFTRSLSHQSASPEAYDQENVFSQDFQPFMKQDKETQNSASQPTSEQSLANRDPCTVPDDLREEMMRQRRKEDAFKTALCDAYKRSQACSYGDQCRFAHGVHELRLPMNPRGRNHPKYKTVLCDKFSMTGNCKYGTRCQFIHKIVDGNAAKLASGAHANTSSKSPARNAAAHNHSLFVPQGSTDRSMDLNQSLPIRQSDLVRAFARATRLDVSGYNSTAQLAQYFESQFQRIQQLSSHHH

[2] = target: Mucolipin-3 (Homo sapiens, UniProt Q8TDD5); test: Fluorescence counterscreen assay for […] agonists: dose response cell-based high-throughput screening assay to identify agonists of the transient receptor potential channel ML3 (TRPML3). [Related pubchem assays: 1424, 1448 ]; format: functional
[3] = target: T2, Zinc finger protein mex-5 (Caenorhabditis elegans, UniProt Q9XUB2); test: potency of MEX-5 RNA-binding blockers – biochemical, C. elegans, fluorescence polarization, dose response (AID 1960)
T2 sequence (Q9XUB2 whole entry): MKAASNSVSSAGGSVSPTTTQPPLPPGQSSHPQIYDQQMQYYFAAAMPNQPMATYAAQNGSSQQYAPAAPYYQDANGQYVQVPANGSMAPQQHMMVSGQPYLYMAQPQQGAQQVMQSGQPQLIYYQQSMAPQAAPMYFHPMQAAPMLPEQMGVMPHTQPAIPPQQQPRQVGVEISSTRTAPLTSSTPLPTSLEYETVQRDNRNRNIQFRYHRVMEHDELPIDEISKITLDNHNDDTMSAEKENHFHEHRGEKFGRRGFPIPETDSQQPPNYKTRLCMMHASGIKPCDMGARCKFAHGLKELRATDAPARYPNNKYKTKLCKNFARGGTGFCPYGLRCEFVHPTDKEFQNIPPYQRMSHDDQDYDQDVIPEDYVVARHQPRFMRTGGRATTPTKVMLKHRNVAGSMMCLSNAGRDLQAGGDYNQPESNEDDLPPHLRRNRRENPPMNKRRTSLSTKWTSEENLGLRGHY

[4] = target: Ion channel NompC (Danio rerio, UniProt Q7T1G6); test: Dose response cell-based high-throughput screening assay for agonists of the transient receptor potential channel N1 (TRPN1). [Related pubchem assays (depositor defined):AID1424, AID1448]; format: functional
[5] = target: Beta-lactamase (Salmonella choleraesuis (strain SC-B67), UniProt Q5J463)
[6] = target: Beta-lactamase (Pseudomonas aeruginosa, UniProt Q79MP6);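 note: biochemical dose-response test of metallo-beta-lactamase enzyme inhibition, read out by epi-absorbance; purified recombinant IMP-1 metallo-beta-lactamase with nitrocefin as substrate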
[7] = microbe, parasite or virus in culture; format: functional; settings: Mycobacterium tuberculosis
[8] = Vero E6 cell cytotoxicity, dose response, cytotoxicity control for non-replicating M. tuberculosis project, secondary assay (AID 492998); format: functional, VeroE6; settings: Vero C1008
[9] = cells; format: functional
[10] = target: Sphingosine 1-phosphate receptor 4 (Homo sapiens, UniProt O95977); test: Late-stage fluorescence dose response cell-based assay to identify agonists of the Sphingosine 1-Phosphate Receptor 4 (S1P4): purchased compounds EC50. [Related pubchem assays (depositor defined):AID1509, AID1523, AID1563, AID1686, AID1701, AID1801]; format: functional
[11] = target: T3, Tyrosine-protein phosphatase non-receptor type 7 (Homo sapiens, UniProt P35236); test: SAR analysis of chemical inhibitors of HePTP using a Fluorescent assay - Set 2. [Related pubchem assays (depositor defined):AID1059, AID1077, AID1661, AID2085, AID521]; format: functional
T3 sequence (P35236 whole entry): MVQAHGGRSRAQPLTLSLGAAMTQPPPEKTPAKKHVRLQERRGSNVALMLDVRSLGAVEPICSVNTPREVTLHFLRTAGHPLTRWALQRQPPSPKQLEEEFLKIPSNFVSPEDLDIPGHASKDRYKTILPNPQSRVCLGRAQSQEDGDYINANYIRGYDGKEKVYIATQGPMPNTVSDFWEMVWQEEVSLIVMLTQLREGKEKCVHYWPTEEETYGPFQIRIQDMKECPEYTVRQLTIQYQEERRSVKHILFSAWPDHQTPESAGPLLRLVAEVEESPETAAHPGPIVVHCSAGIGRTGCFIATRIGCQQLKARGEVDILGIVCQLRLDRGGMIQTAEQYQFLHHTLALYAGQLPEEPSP

[12] = target: T4, Phosphomannomutase 2 (Homo sapiens, UniProt O15305); test: Counter screen SAR assay for PMM2 inhibitors via a fluorescence intensity assay. [Related pubchem assays (depositor defined):AID1545, AID1574]
T4 sequence (O15305 whole entry): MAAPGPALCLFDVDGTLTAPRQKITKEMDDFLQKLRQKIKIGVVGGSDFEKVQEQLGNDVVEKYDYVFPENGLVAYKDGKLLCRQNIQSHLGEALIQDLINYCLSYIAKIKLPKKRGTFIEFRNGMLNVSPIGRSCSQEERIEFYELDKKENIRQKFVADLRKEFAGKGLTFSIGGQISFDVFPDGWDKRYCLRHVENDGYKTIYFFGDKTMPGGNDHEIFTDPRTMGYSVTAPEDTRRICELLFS

[13] = target: T5, Mannose-6-phosphate isomerase (Homo sapiens, UniProt P34949); test: phosphomannose isomerase inhibition – biochemical, fluorescence intensity, confirmation (AID 1535)
T5 sequence (P34949 whole entry): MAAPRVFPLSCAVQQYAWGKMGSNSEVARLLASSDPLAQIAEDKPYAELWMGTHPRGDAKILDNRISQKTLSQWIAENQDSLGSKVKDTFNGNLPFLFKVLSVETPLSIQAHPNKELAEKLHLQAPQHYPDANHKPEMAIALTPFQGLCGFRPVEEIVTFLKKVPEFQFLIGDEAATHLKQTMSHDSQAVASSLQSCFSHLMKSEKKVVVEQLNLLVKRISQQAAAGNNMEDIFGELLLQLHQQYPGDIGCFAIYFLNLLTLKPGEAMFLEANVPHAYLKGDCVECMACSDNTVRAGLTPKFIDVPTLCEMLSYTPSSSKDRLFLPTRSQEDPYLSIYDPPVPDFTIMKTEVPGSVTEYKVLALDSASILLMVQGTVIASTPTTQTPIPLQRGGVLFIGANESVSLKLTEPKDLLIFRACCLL

[14] = target: T5, Mannose-6-phosphate isomerase; test: MPI enzyme activity inhibition – biochemical, fluorescence intensity, coupled assay, primary screen (AID 1209)
[15] = target: Dual specificity protein phosphatase 3 (Homo sapiens, UniProt P51452); test: SAR VHR1 Fluorescent Assay for In Vitro dose response studies Set 2. [Related pubchem assays (depositor defined):AID1654, AID1661, AID1878]; format: functional
[16] = target: T6, Cannabinoid receptor 2 (Homo sapiens, UniProt P34972); test: SAR analysis of antagonists of the Cannabinoid Receptor 2 using an Image-Based Assay - Set 3. [Related pubchem assays (depositor defined):AID2013, AID2026]; format: functional
[17] = target: T7, Cannabinoid receptor 1 (Homo sapiens, UniProt P21554); test: SAR analysis of agonists of the Cannabinoid Receptor 1 using an Image-Based Assay - Set 4. [Related pubchem assays (depositor defined):AID2013, AID2026]; format: functional
[18] = target: G-protein coupled receptor 55 (Homo sapiens, UniProt Q9Y2T6); test: SAR Analysis of Selective Antagonists of GPR55 using an Image-Based Assay - Set 4. [Related pubchem assays (depositor defined):AID2013, AID2026]; format: functional;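 note: antagonism of response to 5 µM lysophosphatidylinositol agonist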
[19] = target: T8, G-protein coupled receptor 35 (Homo sapiens, UniProt Q9HC97); test: SAR analysis of Agonists of the GPR35 Receptor using an Image-Based Assay - Set 4. [Related pubchem assays (depositor defined):AID2013, AID2026]; format: functional
[20] = target: T7, Cannabinoid receptor 1; test: SAR analysis of antagonists of the Cannabinoid Receptor 1 using an Image-Based Assay - Set 4. [Related pubchem assays (depositor defined):AID2013, AID2026]; format: functional
[21] = target: T8, G-protein coupled receptor 35; test: SAR analysis of Antagonists of the GPR35 Receptor using an Image-Based Assay - Set 6. [Related pubchem assays (depositor defined):AID2013, AID2026]; format: functional
[22] = target: T6, Cannabinoid receptor 2; test: SAR analysis of agonists of the Cannabinoid Receptor 2 using an Image-Based Assay - Set 3. [Related pubchem assays (depositor defined):AID2013, AID2026]; format: functional
[23] = target: T9, Runt-related transcription factor 1/Core-binding factor subunit beta (Homo sapiens, UniProt Q01196+Q13951); test: Confirmation of compounds inhibiting the binding between the RUNX1 Runt domain and CBFb-SMMHC via a fluorescence resonance energy transfer (FRET) assay. [Related pubchem assays (depositor defined):AID1434, AID1438, AID1496, AID1550, AID1645]; format: protein assay
[24] = target: T9, Runt-related transcription factor 1/Core-binding factor subunit beta; test: disruptors of Runt domain/CBFb-SMMHC interaction – biochemical, FRET, Cerulean-Runt, Venus-CBFb-SMMHC, uHTS, […] (AID 1434); format: protein assay
[25] = target: T9, Runt-related transcription factor 1/Core-binding factor subunit beta; test: Runt domain/CBFb-SMMHC interaction disruptors – biochemical, TR-FRET (AID 1438); format: protein assay
[26] = target: Peroxisome proliferator-activated receptor gamma (Homo sapiens, UniProt P37231); test: PPARg transcriptional activation, reporter cells – cell-based, luminescence, assay provider, dose response (AID 504447); format: functional

T9 sequence (Q01196 whole entry, the tested form may be a part): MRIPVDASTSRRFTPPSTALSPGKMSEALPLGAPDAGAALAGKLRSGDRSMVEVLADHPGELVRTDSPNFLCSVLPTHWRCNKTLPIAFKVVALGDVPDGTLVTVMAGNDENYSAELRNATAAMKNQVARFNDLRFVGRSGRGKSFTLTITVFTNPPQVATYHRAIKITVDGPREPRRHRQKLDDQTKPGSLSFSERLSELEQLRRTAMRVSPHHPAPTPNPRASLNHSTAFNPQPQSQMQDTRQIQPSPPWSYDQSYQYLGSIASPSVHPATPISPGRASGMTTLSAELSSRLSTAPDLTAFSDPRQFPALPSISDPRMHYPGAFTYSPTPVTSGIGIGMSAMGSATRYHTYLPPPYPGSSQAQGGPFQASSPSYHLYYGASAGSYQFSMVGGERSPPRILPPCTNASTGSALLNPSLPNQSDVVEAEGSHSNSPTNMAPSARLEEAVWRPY
T9 sequence (Q13951 whole entry, the tested form may be a part): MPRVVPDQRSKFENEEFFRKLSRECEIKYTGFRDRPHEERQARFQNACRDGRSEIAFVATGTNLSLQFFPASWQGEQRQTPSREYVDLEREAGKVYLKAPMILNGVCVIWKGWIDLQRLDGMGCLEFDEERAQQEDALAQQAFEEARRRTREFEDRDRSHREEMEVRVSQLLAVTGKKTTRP
T6 sequence (P34972 whole entry): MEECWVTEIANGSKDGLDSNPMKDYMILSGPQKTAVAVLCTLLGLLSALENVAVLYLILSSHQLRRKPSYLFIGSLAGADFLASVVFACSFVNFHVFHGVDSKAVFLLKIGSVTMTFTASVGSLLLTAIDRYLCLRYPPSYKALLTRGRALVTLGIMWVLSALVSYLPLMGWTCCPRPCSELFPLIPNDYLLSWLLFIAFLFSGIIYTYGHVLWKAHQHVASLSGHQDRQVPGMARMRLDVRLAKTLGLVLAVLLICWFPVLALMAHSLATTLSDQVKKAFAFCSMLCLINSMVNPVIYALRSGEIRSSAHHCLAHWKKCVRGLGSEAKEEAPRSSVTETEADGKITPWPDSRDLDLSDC
T7 sequence (P21554 whole entry): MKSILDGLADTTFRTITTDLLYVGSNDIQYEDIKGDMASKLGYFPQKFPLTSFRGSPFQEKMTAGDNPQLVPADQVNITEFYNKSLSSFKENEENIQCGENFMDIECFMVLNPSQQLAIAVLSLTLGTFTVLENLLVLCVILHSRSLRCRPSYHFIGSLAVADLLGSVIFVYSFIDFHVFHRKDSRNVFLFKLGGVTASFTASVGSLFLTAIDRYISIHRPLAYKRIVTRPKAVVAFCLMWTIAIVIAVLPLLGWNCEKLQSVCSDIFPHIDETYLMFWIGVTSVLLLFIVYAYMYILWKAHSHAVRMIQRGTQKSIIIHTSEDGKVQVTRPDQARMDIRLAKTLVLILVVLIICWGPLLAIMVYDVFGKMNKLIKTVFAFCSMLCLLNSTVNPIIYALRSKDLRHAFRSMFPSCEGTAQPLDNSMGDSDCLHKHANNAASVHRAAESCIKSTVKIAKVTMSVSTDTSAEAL
T8 sequence (Q9HC97 whole entry): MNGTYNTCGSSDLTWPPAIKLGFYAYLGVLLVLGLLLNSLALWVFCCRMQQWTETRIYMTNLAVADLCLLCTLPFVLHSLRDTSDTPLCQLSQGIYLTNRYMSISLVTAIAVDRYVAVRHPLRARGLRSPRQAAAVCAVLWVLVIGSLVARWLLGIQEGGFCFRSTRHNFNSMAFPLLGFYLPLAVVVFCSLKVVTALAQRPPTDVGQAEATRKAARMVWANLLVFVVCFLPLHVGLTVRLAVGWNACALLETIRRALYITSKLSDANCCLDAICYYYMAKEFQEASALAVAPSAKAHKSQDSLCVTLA
Beta-lactamase (Pseudomonas aeruginosa, UniProt Q79MP6), sequence (Q79MP6 whole entry): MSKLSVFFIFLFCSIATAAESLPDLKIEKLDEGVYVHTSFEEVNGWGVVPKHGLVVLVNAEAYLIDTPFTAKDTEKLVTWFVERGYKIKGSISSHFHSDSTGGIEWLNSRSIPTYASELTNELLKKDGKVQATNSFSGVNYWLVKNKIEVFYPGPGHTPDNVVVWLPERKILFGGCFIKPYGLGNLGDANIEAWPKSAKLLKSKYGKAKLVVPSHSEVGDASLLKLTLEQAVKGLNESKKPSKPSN
Sphingosine 1-phosphate receptor 4, sequence (O95977 whole entry): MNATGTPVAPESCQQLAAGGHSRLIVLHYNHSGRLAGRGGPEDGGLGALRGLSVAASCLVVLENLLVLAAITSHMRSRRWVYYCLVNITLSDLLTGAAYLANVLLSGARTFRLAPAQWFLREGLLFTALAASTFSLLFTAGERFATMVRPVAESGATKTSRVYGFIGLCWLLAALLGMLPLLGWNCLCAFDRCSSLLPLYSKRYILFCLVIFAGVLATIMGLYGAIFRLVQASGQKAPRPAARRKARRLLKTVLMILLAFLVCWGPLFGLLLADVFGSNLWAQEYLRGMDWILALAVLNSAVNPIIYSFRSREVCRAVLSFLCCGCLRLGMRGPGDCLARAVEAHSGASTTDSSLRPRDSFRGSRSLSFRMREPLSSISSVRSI
Beta-lactamase (Salmonella choleraesuis (strain SC-B67), UniProt Q5J463), sequence (Q5J463 whole entry): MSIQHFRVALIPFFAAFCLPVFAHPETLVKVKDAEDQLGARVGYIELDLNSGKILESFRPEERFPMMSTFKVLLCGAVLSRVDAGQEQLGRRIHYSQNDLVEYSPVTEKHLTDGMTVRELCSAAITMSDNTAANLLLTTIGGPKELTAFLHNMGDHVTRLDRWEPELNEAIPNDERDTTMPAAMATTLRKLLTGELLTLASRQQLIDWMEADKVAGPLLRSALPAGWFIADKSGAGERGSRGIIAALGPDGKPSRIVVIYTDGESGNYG
Ion channel NompC, sequence (Q7T1G6 whole entry): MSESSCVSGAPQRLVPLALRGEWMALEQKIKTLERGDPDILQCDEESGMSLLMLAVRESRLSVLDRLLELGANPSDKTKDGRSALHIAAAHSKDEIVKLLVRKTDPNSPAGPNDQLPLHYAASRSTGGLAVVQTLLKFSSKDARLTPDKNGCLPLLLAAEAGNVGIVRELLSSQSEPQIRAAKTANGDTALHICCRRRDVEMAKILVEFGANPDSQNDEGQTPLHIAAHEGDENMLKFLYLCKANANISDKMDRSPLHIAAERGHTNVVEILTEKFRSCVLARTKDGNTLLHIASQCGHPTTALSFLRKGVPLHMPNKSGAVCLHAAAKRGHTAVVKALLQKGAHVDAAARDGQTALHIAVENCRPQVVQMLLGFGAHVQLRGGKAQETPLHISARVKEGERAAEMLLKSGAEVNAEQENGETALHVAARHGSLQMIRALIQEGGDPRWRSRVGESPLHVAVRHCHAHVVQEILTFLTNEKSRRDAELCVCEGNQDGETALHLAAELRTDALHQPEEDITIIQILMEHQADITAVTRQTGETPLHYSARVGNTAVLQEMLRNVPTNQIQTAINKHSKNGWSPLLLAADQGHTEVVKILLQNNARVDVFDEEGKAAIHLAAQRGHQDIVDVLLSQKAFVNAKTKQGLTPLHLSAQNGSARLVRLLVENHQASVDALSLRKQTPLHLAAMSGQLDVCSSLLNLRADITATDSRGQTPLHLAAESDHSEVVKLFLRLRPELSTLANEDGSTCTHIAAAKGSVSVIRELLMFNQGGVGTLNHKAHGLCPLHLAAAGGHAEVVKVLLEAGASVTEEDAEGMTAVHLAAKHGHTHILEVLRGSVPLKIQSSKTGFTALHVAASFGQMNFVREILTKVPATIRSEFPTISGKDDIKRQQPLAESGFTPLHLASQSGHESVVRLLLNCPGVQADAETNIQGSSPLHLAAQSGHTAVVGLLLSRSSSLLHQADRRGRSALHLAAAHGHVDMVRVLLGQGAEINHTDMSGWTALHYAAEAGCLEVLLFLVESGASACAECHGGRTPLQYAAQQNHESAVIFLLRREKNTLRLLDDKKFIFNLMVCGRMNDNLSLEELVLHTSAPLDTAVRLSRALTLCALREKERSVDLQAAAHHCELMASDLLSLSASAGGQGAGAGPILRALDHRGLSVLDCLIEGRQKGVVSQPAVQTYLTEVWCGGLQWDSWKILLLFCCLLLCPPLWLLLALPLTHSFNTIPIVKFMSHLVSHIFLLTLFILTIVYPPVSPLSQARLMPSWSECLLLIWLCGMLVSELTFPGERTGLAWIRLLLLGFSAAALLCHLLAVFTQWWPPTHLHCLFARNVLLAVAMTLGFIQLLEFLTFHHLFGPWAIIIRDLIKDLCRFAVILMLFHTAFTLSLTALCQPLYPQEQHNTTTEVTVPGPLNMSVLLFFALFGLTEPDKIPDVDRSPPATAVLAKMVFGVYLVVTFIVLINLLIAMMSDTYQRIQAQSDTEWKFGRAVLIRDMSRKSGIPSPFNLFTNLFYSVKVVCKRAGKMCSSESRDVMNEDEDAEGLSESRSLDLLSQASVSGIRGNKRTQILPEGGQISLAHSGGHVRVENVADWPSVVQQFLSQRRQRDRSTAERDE
Dual specificity protein phosphatase 3, sequence (P51452 whole entry): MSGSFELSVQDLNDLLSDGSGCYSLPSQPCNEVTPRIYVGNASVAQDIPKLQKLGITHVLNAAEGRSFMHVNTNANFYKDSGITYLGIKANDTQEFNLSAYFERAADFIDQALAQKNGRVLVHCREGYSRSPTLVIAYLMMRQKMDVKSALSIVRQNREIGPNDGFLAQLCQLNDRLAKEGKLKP
G-protein coupled receptor 55, sequence (Q9Y2T6 whole entry): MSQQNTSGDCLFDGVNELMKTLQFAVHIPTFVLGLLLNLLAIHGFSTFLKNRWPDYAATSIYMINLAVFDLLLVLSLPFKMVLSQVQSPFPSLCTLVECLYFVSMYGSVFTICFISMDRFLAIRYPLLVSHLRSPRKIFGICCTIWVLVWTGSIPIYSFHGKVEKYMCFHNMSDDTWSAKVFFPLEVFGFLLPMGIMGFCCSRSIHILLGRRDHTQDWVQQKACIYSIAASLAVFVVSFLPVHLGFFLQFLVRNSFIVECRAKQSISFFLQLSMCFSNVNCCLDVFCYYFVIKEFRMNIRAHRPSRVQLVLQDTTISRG

## CCCN1C(=O)c2cccc3c(N4CCCCC4)ccc(c23)C1=O
[1]
  EC50: 29.8 µM (active)
[2]
  EC50: > 9.97 µM (not active)
[3]
  EC50: 51 µM (inconclusive)
[4]
  EC50: > 9.97 µM (inactive)
[5]
  IC50: > 59.6 µM (inactive)
[6]
  IC50: > 59.6 µM (inactive)

## Cc1cc(C)n2[nH]c(=O)c(N=Nc3cccc(C(F)(F)F)c3)c2n1
[7]
  CC50: 26.2 µM (active)
[8]
  CC50: 20 µM (active)
[9]
  IC50: 18.7 µM (active)

## CC(=O)c1ccccc1NC(=O)C(C)OC(=O)c1c(C)nn(Cc2ccccc2)c1Cl (stereo unspecified)
[10]
  EC50: > 50 µM (inactive)

## CCOc1ccc(NC(=S)Nc2cc(C)n[nH]2)cc1
[11]
  IC50: > 100 µM (inactive)
[12]
  IC50: > 100 µM (inactive)
[13]
  IC50: > 50 µM (inactive)
[14]
  IC50: 9.41 µM (active)
[15]
  IC50: > 100 µM (inactive)

## O=C(Cc1ccccc1F)N1CCC(n2nc(-c3ccccc3)oc2=O)CC1
[16]
  IC50: > 32 µM (inactive)
[17]
  EC50: > 32 µM (inactive)
[18]
  IC50: > 32 µM (inactive)
[19]
  EC50: > 32 µM (inactive)
[20]
  IC50: 17.9 µM (inactive)
[21]
  IC50: > 32 µM (inactive)
[22]
  EC50: > 32 µM (inactive)

## Cc1nc2ccc(S(=O)(=O)Nc3ccc(-c4nc5cccnc5s4)cc3)cc2s1
[23]
  IC50: 0.713 µM (active)
[24]
  IC50: 1.6 µM (active)
[25]
  IC50: > 100 µM (inactive)

## O=C(CSc1nc(=O)n(CCN2CCOCC2)c2c1CCCC2)Nc1cccc([N+](=O)[O-])c1
[26]
  EC50: 0.631 µM (active)
